± gives the standard deviation of the averaged measurements or the uncertainty stated by the source.
Tests used:
[1] = test system: Caenorhabditis briggsae AF16; test: Kaplan-Meier median lifespan of treated plate (days); higher = longer lifespan; settings: exposure: chronic from day 1 of adulthood
Experimental: (§1)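 Dose-response lifespan assays in three C. briggsae strains (AF16, HK104, JU1348), run per plate (35-40 animals) on NGM with live OP50-1 and 51 uM FUdR at 20 C. Compound was added to the plate surface and worms were exposed from the first day of adulthood.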

[2] = test system: Caenorhabditis briggsae HK104; test: as above; settings: exposure: chronic from day 1 of adulthood
Experimental: as §1

[3] = test system: Caenorhabditis briggsae JU1348; test: as above; settings: exposure: chronic from day 1 of adulthood
Experimental: as §1

[4] = test system: Caenorhabditis briggsae AF16; test: mean adult lifespan of treated cohort (days); higher = longer lifespan; settings: exposure: chronic from day 1 of adulthood, single dose per compound (concentration not stated in sheet)
Experimental: (§2)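 Caenorhabditis lifespan assay (CITP). Synchronised hermaphrodites were moved on the first day of adulthood onto 35 mm NGM plates with live E. coli OP50-1 and 51 uM FUdR, with the compound spread on the plate. Worms were kept at 20 C and scored for survival.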

[5] = test system: Caenorhabditis elegans MY16; test: as above; settings: exposure: chronic from day 1 of adulthood, single dose per compound (concentration not stated in sheet)
Experimental: as §2

[6] = test system: Caenorhabditis briggsae HK104; test: as above; settings: exposure: chronic from day 1 of adulthood, single dose per compound (concentration not stated in sheet)
Experimental: as §2

[7] = test system: Caenorhabditis briggsae JU1348; test: as above; settings: exposure: chronic from day 1 of adulthood, single dose per compound (concentration not stated in sheet)
Experimental: as §2

[8] = test system: Caenorhabditis elegans JU775; test: as above; settings: exposure: chronic from day 1 of adulthood, single dose per compound (concentration not stated in sheet)
Experimental: as §2

[9] = test system: Caenorhabditis elegans N2; test: as above; settings: exposure: chronic from day 1 of adulthood, single dose per compound (concentration not stated in sheet)
Experimental: as §2

[10] = test system: Caenorhabditis briggsae AF16; test: mean adult lifespan of treated plate (days); higher = longer lifespan; settings: exposure: chronic from day 1 of adulthood
Experimental: as §1

[11] = test system: Caenorhabditis briggsae HK104; test: as above; settings: exposure: chronic from day 1 of adulthood
Experimental: as §1

[12] = test system: Caenorhabditis briggsae JU1348; test: as above; settings: exposure: chronic from day 1 of adulthood
Experimental: as §1

[13] = test system: Caenorhabditis briggsae AF16; test: Kaplan-Meier median lifespan of treated cohort (days); higher = longer lifespan; settings: exposure: chronic from day 1 of adulthood, single dose per compound (concentration not stated in sheet)
Experimental: as §2

[14] = test system: Caenorhabditis elegans MY16; test: as above; settings: exposure: chronic from day 1 of adulthood, single dose per compound (concentration not stated in sheet)
Experimental: as §2

[15] = test system: Caenorhabditis briggsae HK104; test: as above; settings: exposure: chronic from day 1 of adulthood, single dose per compound (concentration not stated in sheet)
Experimental: as §2

[16] = test system: Caenorhabditis briggsae JU1348; test: as above; settings: exposure: chronic from day 1 of adulthood, single dose per compound (concentration not stated in sheet)
Experimental: as §2

[17] = test system: Caenorhabditis elegans JU775; test: as above; settings: exposure: chronic from day 1 of adulthood, single dose per compound (concentration not stated in sheet)
Experimental: as §2

[18] = test system: Caenorhabditis elegans N2; test: as above; settings: exposure: chronic from day 1 of adulthood, single dose per compound (concentration not stated in sheet)
Experimental: as §2

## Cc1ccc2c(c1)sc(-c1ccc(N(C)C)cc1)[n+]2C [Thioflavin T]
[1]; 5.3 µM
  Kaplan-Meier median lifespan: 28
[1]; 26.5 µM
  Kaplan-Meier median lifespan: 24
[1]; 106 µM
  Kaplan-Meier median lifespan: 5.67 ± 1.1
[1]; 530 µM
  Kaplan-Meier median lifespan: 5.67 ± 1.1
[2]; 5.3 µM
  Kaplan-Meier median lifespan: 33 ± 2.8
[2]; 26.5 µM
  Kaplan-Meier median lifespan: 35
[2]; 106 µM
  Kaplan-Meier median lifespan: 6 ± 1.4
[2]; 530 µM
  Kaplan-Meier median lifespan: 5.5 ± 2.1
[3]; 0.5 µM
  Kaplan-Meier median lifespan: 24 ± 3.1
[3]; 5 µM
  Kaplan-Meier median lifespan: 23.6 ± 2.9
[3]; 25 µM
  Kaplan-Meier median lifespan: 26.2 ± 3.4
[3]; 26.5 µM
  Kaplan-Meier median lifespan: 33 ± 2.8
[3]; 100 µM
  Kaplan-Meier median lifespan: 22.4 ± 7
[3]; 106 µM
  Kaplan-Meier median lifespan: 4.67 ± 0.58
[3]; 530 µM
  Kaplan-Meier median lifespan: 4
[4]
  mean adult lifespan of treated cohort: 31.3 ± 1.2
[5]
  mean adult lifespan of treated cohort: 26.7 ± 0.74
[6]
  mean adult lifespan of treated cohort: 39.5 ± 1
[7]
  mean adult lifespan of treated cohort: 27.6 ± 0.89
[8]
  mean adult lifespan of treated cohort: 25.5 ± 1
[9]
  mean adult lifespan of treated cohort: 20.2 ± 0.93
[10]; 5.3 µM
  mean adult lifespan of treated plate: 28.1 ± 1.5
[10]; 26.5 µM
  mean adult lifespan of treated plate: 17 ± 1
[10]; 106 µM
  mean adult lifespan of treated plate: 5.48 ± 0.12
[10]; 530 µM
  mean adult lifespan of treated plate: 5.75 ± 0.26
[11]; 5.3 µM
  mean adult lifespan of treated plate: 33.5 ± 1.7
[11]; 26.5 µM
  mean adult lifespan of treated plate: 30.8 ± 3.1
[11]; 106 µM
  mean adult lifespan of treated plate: 5.61 ± 0.26
[11]; 530 µM
  mean adult lifespan of treated plate: 5.71 ± 0.35
[12]; 0.5 µM
  mean adult lifespan of treated plate: 24.1 ± 1.1
[12]; 5 µM
  mean adult lifespan of treated plate: 24.3 ± 1.2
[12]; 5.3 µM
  mean adult lifespan of treated plate: 19.49 ± 0.17
[12]; 25 µM
  mean adult lifespan of treated plate: 25.9 ± 1.1
[12]; 26.5 µM
  mean adult lifespan of treated plate: 28.3 ± 1.2
[12]; 100 µM
  mean adult lifespan of treated plate: 21.5 ± 1.7
[12]; 106 µM
  mean adult lifespan of treated plate: 5.01 ± 0.12
[12]; 530 µM
  mean adult lifespan of treated plate: 4.33 ± 0.092
[13]
  Kaplan-Meier median lifespan: 31.7 ± 5.8
[14]
  Kaplan-Meier median lifespan: 27.2 ± 3.1
[15]
  Kaplan-Meier median lifespan: 41.4 ± 3.5
[16]
  Kaplan-Meier median lifespan: 28.1 ± 4.4
[17]
  Kaplan-Meier median lifespan: 27.7 ± 2.4
[18]
  Kaplan-Meier median lifespan: 21.4 ± 5

## O=C(O)CCC(=O)C(=O)O [alpha-ketoglutaric acid]
[1]; 100 µM
  Kaplan-Meier median lifespan: 26.5 ± 1.7
[1]; 500 µM
  Kaplan-Meier median lifespan: 25 ± 2.2
[1]; 800 µM
  Kaplan-Meier median lifespan: 26
[1]; 1000 µM
  Kaplan-Meier median lifespan: 28 ± 2.5
[1]; 4000 µM
  Kaplan-Meier median lifespan: 25.9 ± 5.6
[1]; 16000 µM
  Kaplan-Meier median lifespan: 19 ± 1.6
[1]; 40000 µM
  Kaplan-Meier median lifespan: 18.5 ± 1.9
[2]; 100 µM
  Kaplan-Meier median lifespan: 36 ± 4.6
[2]; 500 µM
  Kaplan-Meier median lifespan: 37.2 ± 4
[2]; 800 µM
  Kaplan-Meier median lifespan: 36.3 ± 4.7
[2]; 1000 µM
  Kaplan-Meier median lifespan: 37.2 ± 6.3
[2]; 4000 µM
  Kaplan-Meier median lifespan: 35 ± 5
[2]; 16000 µM
  Kaplan-Meier median lifespan: 23.8 ± 2.1
[2]; 40000 µM
  Kaplan-Meier median lifespan: 25.8 ± 2.1
[3]; 100 µM
  Kaplan-Meier median lifespan: 23.3 ± 2.5
[3]; 500 µM
  Kaplan-Meier median lifespan: 25.3 ± 2.5
[3]; 800 µM
  Kaplan-Meier median lifespan: 23 ± 4.2
[3]; 1000 µM
  Kaplan-Meier median lifespan: 28 ± 3
[3]; 4000 µM
  Kaplan-Meier median lifespan: 22.8 ± 5.2
[3]; 16000 µM
  Kaplan-Meier median lifespan: 12.5 ± 1
[3]; 40000 µM
  Kaplan-Meier median lifespan: 11 ± 1.1
[4]
  mean adult lifespan of treated cohort: 25.9 ± 0.89
[5]
  mean adult lifespan of treated cohort: 24.9 ± 0.53
[6]
  mean adult lifespan of treated cohort: 33.8 ± 0.71
[7]
  mean adult lifespan of treated cohort: 24.6 ± 0.77
[8]
  mean adult lifespan of treated cohort: 24.6 ± 0.58
[9]
  mean adult lifespan of treated cohort: 21.4 ± 0.45
[10]; 100 µM
  mean adult lifespan of treated plate: 27 ± 1.5
[10]; 500 µM
  mean adult lifespan of treated plate: 21.7 ± 1.1
[10]; 800 µM
  mean adult lifespan of treated plate: 24.9 ± 0.84
[10]; 1000 µM
  mean adult lifespan of treated plate: 27.5 ± 1.4
[10]; 4000 µM
  mean adult lifespan of treated plate: 26.5 ± 1.3
[10]; 16000 µM
  mean adult lifespan of treated plate: 20.2 ± 1.1
[10]; 40000 µM
  mean adult lifespan of treated plate: 20.3 ± 1
[11]; 100 µM
  mean adult lifespan of treated plate: 33.8 ± 1.2
[11]; 500 µM
  mean adult lifespan of treated plate: 35.3 ± 1.6
[11]; 800 µM
  mean adult lifespan of treated plate: 33.7 ± 1.4
[11]; 1000 µM
  mean adult lifespan of treated plate: 36.7 ± 1.3
[11]; 4000 µM
  mean adult lifespan of treated plate: 33 ± 1.4
[11]; 16000 µM
  mean adult lifespan of treated plate: 23.6 ± 1.1
[11]; 40000 µM
  mean adult lifespan of treated plate: 24.7 ± 1.1
[12]; 100 µM
  mean adult lifespan of treated plate: 23.3 ± 1.4
[12]; 500 µM
  mean adult lifespan of treated plate: 23.5 ± 1.1
[12]; 800 µM
  mean adult lifespan of treated plate: 22.7 ± 1.1
[12]; 1000 µM
  mean adult lifespan of treated plate: 25.5 ± 1.3
[12]; 4000 µM
  mean adult lifespan of treated plate: 24.6 ± 1.9
[12]; 16000 µM
  mean adult lifespan of treated plate: 14.7 ± 1.2
[12]; 40000 µM
  mean adult lifespan of treated plate: 11.7 ± 0.54
[13]
  Kaplan-Meier median lifespan: 26.3 ± 1.7
[14]
  Kaplan-Meier median lifespan: 25.3 ± 1.4
[15]
  Kaplan-Meier median lifespan: 34.7 ± 2.5
[16]
  Kaplan-Meier median lifespan: 25.9 ± 2.3
[17]
  Kaplan-Meier median lifespan: 25.6 ± 1.7
[18]
  Kaplan-Meier median lifespan: 21.9 ± 1.6

## O=C(O)CCCCC1CCSS1 (stereo not drawn) [alpha-lipoic acid]
[4]
  mean adult lifespan of treated cohort: 27.5 ± 0.76
[5]
  mean adult lifespan of treated cohort: 16.3 ± 0.61
[6]
  mean adult lifespan of treated cohort: 35.9 ± 0.96
[7]
  mean adult lifespan of treated cohort: 26.4 ± 0.83
[8]
  mean adult lifespan of treated cohort: 18.3 ± 0.61
[9]
  mean adult lifespan of treated cohort: 19.2 ± 0.4
[13]
  Kaplan-Meier median lifespan: 28.4 ± 3.2
[14]
  Kaplan-Meier median lifespan: 15.6 ± 2.1
[15]
  Kaplan-Meier median lifespan: 37.2 ± 1.3
[16]
  Kaplan-Meier median lifespan: 25.8 ± 1.5
[17]
  Kaplan-Meier median lifespan: 18.4 ± 4.2
[18]
  Kaplan-Meier median lifespan: 19.2 ± 1.5

## CC(=O)Oc1ccccc1C(=O)O [aspirin]
[4]
  mean adult lifespan of treated cohort: 27 ± 0.81
[5]
  mean adult lifespan of treated cohort: 17 ± 0.49
[6]
  mean adult lifespan of treated cohort: 37.2 ± 1
[7]
  mean adult lifespan of treated cohort: 28 ± 1.1
[8]
  mean adult lifespan of treated cohort: 18.3 ± 0.55
[9]
  mean adult lifespan of treated cohort: 17.9 ± 0.3
[13]
  Kaplan-Meier median lifespan: 27.8 ± 3.7
[14]
  Kaplan-Meier median lifespan: 16.4 ± 1.4
[15]
  Kaplan-Meier median lifespan: 37.5 ± 1.9
[16]
  Kaplan-Meier median lifespan: 28.3 ± 4.4
[17]
  Kaplan-Meier median lifespan: 17.4 ± 4.3
[18]
  Kaplan-Meier median lifespan: 17.5 ± 1.1

## COc1cc(/C=C/C(=O)CC(=O)/C=C/c2ccc(O)c(OC)c2)ccc1O [curcumin]
[4]
  mean adult lifespan of treated cohort: 21.9 ± 0.82
[5]
  mean adult lifespan of treated cohort: 15.6 ± 0.46
[6]
  mean adult lifespan of treated cohort: 30.5 ± 0.87
[7]
  mean adult lifespan of treated cohort: 21.3 ± 0.66
[8]
  mean adult lifespan of treated cohort: 19.5 ± 0.66
[9]
  mean adult lifespan of treated cohort: 17.1 ± 0.34
[13]
  Kaplan-Meier median lifespan: 23.2 ± 1.7
[14]
  Kaplan-Meier median lifespan: 15.3 ± 1.6
[15]
  Kaplan-Meier median lifespan: 30.7 ± 2.2
[16]
  Kaplan-Meier median lifespan: 21.2 ± 2.8
[17]
  Kaplan-Meier median lifespan: 19.3 ± 2
[18]
  Kaplan-Meier median lifespan: 17.7 ± 0.82

## O=c1c(O)c(-c2ccc(O)c(O)c2)oc2cc(O)cc(O)c12 [quercetin]
[4]
  mean adult lifespan of treated cohort: 26.5 ± 0.79
[5]
  mean adult lifespan of treated cohort: 15.9 ± 0.49
[6]
  mean adult lifespan of treated cohort: 33 ± 0.87
[7]
  mean adult lifespan of treated cohort: 25.2 ± 0.76
[8]
  mean adult lifespan of treated cohort: 17.4 ± 0.69
[9]
  mean adult lifespan of treated cohort: 17.6 ± 0.32
[13]
  Kaplan-Meier median lifespan: 28 ± 2.2
[14]
  Kaplan-Meier median lifespan: 15 ± 1.8
[15]
  Kaplan-Meier median lifespan: 35.5 ± 1.7
[16]
  Kaplan-Meier median lifespan: 24.8 ± 2.5
[17]
  Kaplan-Meier median lifespan: 15.2 ± 2.1
[18]
  Kaplan-Meier median lifespan: 17.8 ± 0.96

## CCCC(CCC)C(=O)O [valproic acid]
[4]
  mean adult lifespan of treated cohort: 21.8 ± 0.98
[5]
  mean adult lifespan of treated cohort: 14.7 ± 0.48
[6]
  mean adult lifespan of treated cohort: 32.9 ± 0.96
[7]
  mean adult lifespan of treated cohort: 21.9 ± 0.85
[8]
  mean adult lifespan of treated cohort: 18.2 ± 0.56
[9]
  mean adult lifespan of treated cohort: 17.6 ± 0.42
[13]
  Kaplan-Meier median lifespan: 22 ± 2.6
[14]
  Kaplan-Meier median lifespan: 14.6 ± 0.98
[15]
  Kaplan-Meier median lifespan: 35.3 ± 1.9
[16]
  Kaplan-Meier median lifespan: 21.9 ± 1.2
[17]
  Kaplan-Meier median lifespan: 17.4 ± 3.1
[18]
  Kaplan-Meier median lifespan: 17.6 ± 0.54

Reference: the supplement of paper PMC5321775
